Measured values from patent EP0882029B1, “HETEROCYCLIC DERIVATIVES AS ANTIDIABETIC AND ANTIOBESITY AGENTS” (MERCK & CO., INC., priority 1996, dated 1997).

Assays:
Human PPARγ2 = molecular target: T1, Human PPARγ2 (Homo sapiens, UniProt P37231); experiment: [3H]AD-5075 displacement (receptor binding) assay; conditions: gst-fusion receptor, 10 nM [3H2]AD-5075, ~16 h at 4 °C
T1 construct: The full length human cDNA for PPARγ2 and PPARδ were subcloned into the PGEX-2T and PGEX-KT, respectively, expression vector; made in house; host or cells: E. coli (pGEX-2T vector, Pharmacia)
T1 sequence (P37231 1-505): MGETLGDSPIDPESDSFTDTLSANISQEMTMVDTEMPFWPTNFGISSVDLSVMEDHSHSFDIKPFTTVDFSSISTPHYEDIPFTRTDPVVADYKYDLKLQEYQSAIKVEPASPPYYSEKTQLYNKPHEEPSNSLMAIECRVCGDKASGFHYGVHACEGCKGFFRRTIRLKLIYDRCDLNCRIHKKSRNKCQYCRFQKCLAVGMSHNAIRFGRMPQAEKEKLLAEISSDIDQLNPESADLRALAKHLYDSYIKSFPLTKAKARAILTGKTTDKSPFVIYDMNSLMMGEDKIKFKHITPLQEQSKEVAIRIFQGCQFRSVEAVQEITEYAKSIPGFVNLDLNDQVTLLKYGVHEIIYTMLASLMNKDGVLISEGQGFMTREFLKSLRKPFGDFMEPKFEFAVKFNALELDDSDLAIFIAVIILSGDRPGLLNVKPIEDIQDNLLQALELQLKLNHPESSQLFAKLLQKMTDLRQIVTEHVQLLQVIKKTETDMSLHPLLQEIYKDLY
Method: Human PPARγ2 and PPARδ, independently, were prepared as gst-fusion proteins in E. coli. The full length human cDNA for PPARγ2 and PPARδ were subcloned into the PGEX-2T and PGEX-KT, respectively, expression vector (Pharmacia). E. coli containing the plasmid were grown, induced, and then harvested by centrifugation. The resuspended pellet was broken in a French press and debris was removed by centrifugation at 12,000Xg. Receptors were purified from the supernatant by affinity chromatography on glutathione sepharose. After application to the column, and 1 wash, receptor was eluted with glutathione. Glycerol was added to stabilize the receptor and aliquots were frozen at -80 °C for later use.
For each assay, an aliquot of receptor (1:1000-1:3000 dilution) was incubated in TEGM (10 mM Tris, pH 7.2, 1 mM EDTA, 10% glycerol, 7 µl/100 ml β-mercaptoethanol, 10 mM Na molybdate, 1 mM dithiothreitol, 5 µg/ml aprotinin, 2 µg/ml leupeptin, 2 µg/ml benzamide and 0.5 mM PMSF) containing 5-10% COS-1 cell cytoplasmic lysate and 10 nM labeled thiazolidinedione ([^3H2]AD-5075, 21 Ci/mmole), ± test compound compound, [^3H2]Example 11, 17 Ci/mmole), ± test compound, respectively. Assays were incubated for ∼16 h at 4 °C in a final volume of 300 µl. […] After centrifugation at 3000 rpm for 10 min at 4 °C, 200 µl of the supernatant fraction was counted in a liquid scintillation counter. […]

Human PPARδ = molecular target: T2, Human PPARδ (Homo sapiens, UniProt Q03181); experiment: [3H2]Example 11 displacement (receptor binding) assay; conditions: gst-fusion receptor, [3H2]Example 11, ~16 h at 4 °C
T2 construct: The full length human cDNA for PPARγ2 and PPARδ were subcloned into the PGEX-2T and PGEX-KT, respectively, expression vector; made in house; host or cells: E. coli (pGEX-KT vector, Pharmacia)
T2 sequence (Q03181 1-441): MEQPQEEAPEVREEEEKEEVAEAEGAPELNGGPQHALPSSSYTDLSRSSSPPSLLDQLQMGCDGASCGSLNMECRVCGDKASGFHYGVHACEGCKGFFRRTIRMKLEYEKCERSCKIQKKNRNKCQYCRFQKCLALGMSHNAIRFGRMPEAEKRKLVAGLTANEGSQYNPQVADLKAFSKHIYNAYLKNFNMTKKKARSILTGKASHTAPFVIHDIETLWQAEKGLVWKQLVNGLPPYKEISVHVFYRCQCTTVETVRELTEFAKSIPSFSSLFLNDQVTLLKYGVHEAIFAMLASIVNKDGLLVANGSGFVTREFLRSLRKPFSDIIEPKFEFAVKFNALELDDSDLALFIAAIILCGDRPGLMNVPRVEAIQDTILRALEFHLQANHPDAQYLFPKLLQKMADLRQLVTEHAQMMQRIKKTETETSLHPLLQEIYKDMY
Method: The hPPARδ binding assay comprises the steps of: • (a) preparing multiple test samples by incubating separate aliquots of the receptor hPPARδ with a test compound in TEGM containing 5-10% COS-1 cell cytoplasmic lysate and 2.5 nM labeled ([^3H2]Compound D, 17 Ci/mmole) for a minimum of 12 hours, and preferably for about 16 hours, at 4 °C, wherein the concentration of the test compound in each test sample is different, and preparing a control sample by incubating a further separate aliquot of the receptor hPPARδ under the same conditions but without the test compound; then • (b) removing unbound ligand by adding dextran/gelatin-coated charcoal to each sample while maintaining the samples at 4 °C and allowing at least 10 minutes to pass, then • (c) subjecting each of the test samples and the control sample from step (b) to centrifugation at 4 °C until the charcoal is pelleted; then • (d) counting a portion of the supernatant fraction of each of the test samples and the control sample from step (c) in a liquid scintillation counter and analyzing the results to determine the IC50 of the test compound.
Human PPARγ2 and PPARδ, independently, were prepared as gst-fusion proteins in E. coli. The full length human cDNA for PPARγ2 and PPARδ were subcloned into the PGEX-2T and PGEX-KT, respectively, expression vector (Pharmacia). […]

Kd (Human PPARγ2)	Structure (SMILES)	Kd (Human PPARδ)
1 nM	Cc1oc(-c2ccccc2)nc1C(O)COc1ccc(CC2SC(=O)NC2=O)cc1 (centres unmarked) [AD-5075]	–
–	CCCc1c(OCCC[S+]([O-])c2ccc(CC(=O)OC)cc2Cl)ccc2c(CC)noc12 (centres unmarked) [Example 11, Methyl 3-chloro-4-(3-(3-ethyl-7-propyl-6-benz-[4,5]-isoxazoloxy)-propylthio)phenylacetate S-oxide]	1 nM
